Active and inactive are the calls of the source. How the calls were made is not given here.
Tests used:
[1] = system: Vero; assay: viability of Vero cells under compound – cytotoxicity control for flavivirus capping enzyme inhibitors (AID 588742); type: functional; details: Chlorocebus sabaeus
[2] = biological target: T1, Exodeoxyribonuclease V (Escherichia coli (strain K12), UniProt P04993+P07648+P08394); assay: RecBCD inhibition via phage-restricted bacterial growth – absorbance, V66 E. coli, mutant T4 phage, counter-screen for AddAB inhibitor project, dose response (AID 492957); type: functional, cell-based, Escherichia coli str. K-12 substr. MG1655
T1 sequence (P04993 whole entry): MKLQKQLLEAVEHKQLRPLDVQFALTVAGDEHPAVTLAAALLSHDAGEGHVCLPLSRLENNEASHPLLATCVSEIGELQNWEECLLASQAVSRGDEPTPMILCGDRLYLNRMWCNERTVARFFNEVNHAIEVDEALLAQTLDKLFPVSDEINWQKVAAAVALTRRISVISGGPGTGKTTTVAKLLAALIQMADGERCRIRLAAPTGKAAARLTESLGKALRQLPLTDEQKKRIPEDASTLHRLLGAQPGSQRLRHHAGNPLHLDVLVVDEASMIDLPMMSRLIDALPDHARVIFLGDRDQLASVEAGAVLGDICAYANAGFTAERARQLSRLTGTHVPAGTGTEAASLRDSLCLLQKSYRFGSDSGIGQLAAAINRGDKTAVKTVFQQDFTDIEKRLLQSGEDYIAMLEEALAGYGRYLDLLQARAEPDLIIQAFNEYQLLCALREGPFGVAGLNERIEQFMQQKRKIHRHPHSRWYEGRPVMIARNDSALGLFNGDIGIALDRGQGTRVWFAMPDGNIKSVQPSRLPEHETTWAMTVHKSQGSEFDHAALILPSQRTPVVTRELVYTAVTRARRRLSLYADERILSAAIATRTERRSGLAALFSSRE
T1 sequence (P07648 whole entry): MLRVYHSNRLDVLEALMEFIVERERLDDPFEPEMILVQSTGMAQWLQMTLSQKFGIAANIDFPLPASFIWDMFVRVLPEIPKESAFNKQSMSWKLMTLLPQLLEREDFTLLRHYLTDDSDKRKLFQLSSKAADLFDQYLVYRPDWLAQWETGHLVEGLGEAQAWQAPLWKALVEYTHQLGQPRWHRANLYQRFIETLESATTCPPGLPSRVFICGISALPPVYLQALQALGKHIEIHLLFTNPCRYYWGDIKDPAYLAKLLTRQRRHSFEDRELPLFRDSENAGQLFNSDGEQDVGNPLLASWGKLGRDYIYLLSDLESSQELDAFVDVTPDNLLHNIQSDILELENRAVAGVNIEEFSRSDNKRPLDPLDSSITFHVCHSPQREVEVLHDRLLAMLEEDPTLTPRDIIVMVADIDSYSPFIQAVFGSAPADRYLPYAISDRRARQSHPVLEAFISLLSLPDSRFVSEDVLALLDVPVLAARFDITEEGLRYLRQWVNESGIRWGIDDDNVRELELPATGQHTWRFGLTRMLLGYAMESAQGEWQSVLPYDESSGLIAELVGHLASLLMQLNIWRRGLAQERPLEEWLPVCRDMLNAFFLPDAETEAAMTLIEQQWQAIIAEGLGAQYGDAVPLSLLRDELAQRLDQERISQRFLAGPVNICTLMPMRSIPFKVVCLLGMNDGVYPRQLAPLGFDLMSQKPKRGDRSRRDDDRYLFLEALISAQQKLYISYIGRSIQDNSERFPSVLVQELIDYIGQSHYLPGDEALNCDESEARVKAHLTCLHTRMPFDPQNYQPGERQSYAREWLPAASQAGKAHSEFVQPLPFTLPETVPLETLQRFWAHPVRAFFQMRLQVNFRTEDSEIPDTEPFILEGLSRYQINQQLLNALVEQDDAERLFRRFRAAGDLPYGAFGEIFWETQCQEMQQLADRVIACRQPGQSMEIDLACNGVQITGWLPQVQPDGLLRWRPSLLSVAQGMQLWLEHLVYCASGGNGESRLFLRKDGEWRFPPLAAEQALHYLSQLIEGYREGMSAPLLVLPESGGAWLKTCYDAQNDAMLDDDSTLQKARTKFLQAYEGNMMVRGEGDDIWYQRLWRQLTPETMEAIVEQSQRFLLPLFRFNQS
T1 sequence (P08394 whole entry): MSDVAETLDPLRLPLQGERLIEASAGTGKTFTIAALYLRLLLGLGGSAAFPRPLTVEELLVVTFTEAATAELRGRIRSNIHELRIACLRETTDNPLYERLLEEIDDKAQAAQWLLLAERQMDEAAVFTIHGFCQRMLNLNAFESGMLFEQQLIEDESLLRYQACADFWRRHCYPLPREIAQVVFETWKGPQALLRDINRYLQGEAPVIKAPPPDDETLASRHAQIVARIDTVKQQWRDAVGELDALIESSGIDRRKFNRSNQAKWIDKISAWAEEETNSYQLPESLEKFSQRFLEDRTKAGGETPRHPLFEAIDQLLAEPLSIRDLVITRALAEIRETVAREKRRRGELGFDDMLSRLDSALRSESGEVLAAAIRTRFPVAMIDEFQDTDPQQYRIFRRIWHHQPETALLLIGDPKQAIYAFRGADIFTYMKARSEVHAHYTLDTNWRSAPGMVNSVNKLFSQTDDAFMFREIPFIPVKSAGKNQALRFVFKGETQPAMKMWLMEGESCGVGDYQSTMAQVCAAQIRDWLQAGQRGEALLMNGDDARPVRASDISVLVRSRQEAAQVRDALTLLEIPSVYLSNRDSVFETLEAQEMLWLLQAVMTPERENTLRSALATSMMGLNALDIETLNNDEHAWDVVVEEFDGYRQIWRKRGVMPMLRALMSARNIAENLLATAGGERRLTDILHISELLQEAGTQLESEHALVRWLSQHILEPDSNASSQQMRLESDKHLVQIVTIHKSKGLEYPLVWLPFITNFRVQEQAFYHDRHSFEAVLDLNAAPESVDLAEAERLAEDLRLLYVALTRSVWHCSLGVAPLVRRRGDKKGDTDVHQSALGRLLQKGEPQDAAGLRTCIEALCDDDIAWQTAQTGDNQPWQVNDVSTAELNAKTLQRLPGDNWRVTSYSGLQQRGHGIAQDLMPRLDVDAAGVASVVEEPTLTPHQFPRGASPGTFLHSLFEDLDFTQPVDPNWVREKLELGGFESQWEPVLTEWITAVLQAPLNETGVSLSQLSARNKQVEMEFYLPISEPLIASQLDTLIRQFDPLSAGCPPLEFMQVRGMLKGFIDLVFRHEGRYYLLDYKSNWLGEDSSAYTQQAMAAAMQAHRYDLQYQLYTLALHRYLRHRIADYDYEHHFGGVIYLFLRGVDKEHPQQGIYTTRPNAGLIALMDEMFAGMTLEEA

[3] = biological target: Cyclin-dependent kinase 1 (Homo sapiens, UniProt P06493); type: functional;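 further: Kinome-wide panel profiling, with the target listed as panel member CDC2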
Chain of Cyclin-dependent kinase 1 (P06493 whole entry): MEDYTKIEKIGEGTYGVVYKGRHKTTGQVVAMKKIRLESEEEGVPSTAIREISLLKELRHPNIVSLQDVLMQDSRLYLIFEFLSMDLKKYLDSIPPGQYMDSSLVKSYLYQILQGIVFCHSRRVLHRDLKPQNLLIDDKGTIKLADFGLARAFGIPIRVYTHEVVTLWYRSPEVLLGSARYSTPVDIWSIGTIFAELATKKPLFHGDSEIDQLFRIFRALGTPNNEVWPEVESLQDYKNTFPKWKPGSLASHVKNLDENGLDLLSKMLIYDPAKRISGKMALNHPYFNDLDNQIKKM

[4] = biological target: MAP kinase-activated protein kinase 2 (Homo sapiens, UniProt P49137); type: functional;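 further: measured as one member of a kinome-wide kinase panel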
Chain of MAP kinase-activated protein kinase 2 (P49137 whole entry): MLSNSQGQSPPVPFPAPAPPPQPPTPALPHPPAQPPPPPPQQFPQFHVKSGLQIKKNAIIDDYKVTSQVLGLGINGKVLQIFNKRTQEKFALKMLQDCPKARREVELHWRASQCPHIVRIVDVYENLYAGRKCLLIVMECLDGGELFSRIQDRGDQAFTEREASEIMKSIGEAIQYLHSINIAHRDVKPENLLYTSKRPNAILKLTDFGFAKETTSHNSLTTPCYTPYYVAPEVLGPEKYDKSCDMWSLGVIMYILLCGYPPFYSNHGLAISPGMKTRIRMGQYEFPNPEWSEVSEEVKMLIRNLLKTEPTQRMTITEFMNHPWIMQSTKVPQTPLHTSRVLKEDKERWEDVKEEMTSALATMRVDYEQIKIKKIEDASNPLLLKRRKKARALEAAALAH

[5] = biological target: Serine/threonine-protein kinase Chk2 (Homo sapiens, UniProt O96017); type: functional;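 further: CHEK2 entry within a kinome-wide screening panel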
Chain of Serine/threonine-protein kinase Chk2 (O96017 whole entry): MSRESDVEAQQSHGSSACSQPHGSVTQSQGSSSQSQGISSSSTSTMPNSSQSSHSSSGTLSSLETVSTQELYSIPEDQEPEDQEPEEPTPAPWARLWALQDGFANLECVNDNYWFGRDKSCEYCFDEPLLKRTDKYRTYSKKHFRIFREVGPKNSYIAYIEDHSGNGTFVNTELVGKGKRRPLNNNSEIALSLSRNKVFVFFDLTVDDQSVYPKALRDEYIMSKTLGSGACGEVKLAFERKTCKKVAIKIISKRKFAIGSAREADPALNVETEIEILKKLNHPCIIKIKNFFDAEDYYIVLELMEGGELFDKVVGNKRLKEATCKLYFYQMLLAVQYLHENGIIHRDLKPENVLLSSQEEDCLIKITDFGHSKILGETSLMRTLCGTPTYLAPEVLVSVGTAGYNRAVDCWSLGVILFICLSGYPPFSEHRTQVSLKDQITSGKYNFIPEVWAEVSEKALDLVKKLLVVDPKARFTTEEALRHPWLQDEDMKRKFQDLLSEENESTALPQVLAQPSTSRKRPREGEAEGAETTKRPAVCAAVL

[6] = biological target: Mitogen-activated protein kinase 13 (Homo sapiens, UniProt O15264); type: functional
Chain of Mitogen-activated protein kinase 13 (O15264 whole entry): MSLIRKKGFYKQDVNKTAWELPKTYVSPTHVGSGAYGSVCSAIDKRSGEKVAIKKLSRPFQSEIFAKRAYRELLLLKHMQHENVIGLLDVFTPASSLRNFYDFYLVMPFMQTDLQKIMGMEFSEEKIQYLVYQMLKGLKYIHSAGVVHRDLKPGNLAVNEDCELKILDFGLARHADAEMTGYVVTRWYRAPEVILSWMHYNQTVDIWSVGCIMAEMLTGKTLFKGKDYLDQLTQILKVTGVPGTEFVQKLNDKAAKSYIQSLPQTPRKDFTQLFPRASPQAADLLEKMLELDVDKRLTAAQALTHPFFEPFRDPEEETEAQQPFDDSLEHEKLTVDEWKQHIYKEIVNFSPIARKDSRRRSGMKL

With `NS(=O)(=O)c1ccc(NC2=CC(=O)C(=O)c3ccccc32)cc1` the CC50 [1] was 11.8 µM (active).

In the case of `O=C(N/N=C/c1ccc(O)cc1O)c1ccc(CN2C(=O)c3cccc4cccc2c34)cc1`, the IC50 [2] is reported as > 119 µM (inactive).

In the case of `Clc1cc(-c2c[nH]c3ncccc23)nc(NC2CCCCC2)n1`, the Ki [3] is reported as 0.0316 µM (active), the Ki [4] is reported as > 7.94 µM (inactive) and the Ki [5] is reported as > 1.58 µM (inactive). For the same compound, the Ki [6] was 1.26 µM (active).

In the case of `CCC(=O)NC(c1ccccc1OC)c1ccc2cccnc2c1O` (configuration not stated), the IC50 [2] is reported as > 119 µM (inactive).

Source: ChEMBL document CHEMBL1201862, “PubChem BioAssay data set” (2004)
